Series [1] addresses T1, Nuclear factor erythroid 2-related factor 2 (Homo sapiens) (UniProt Q16236).
T1 sequence (whole entry): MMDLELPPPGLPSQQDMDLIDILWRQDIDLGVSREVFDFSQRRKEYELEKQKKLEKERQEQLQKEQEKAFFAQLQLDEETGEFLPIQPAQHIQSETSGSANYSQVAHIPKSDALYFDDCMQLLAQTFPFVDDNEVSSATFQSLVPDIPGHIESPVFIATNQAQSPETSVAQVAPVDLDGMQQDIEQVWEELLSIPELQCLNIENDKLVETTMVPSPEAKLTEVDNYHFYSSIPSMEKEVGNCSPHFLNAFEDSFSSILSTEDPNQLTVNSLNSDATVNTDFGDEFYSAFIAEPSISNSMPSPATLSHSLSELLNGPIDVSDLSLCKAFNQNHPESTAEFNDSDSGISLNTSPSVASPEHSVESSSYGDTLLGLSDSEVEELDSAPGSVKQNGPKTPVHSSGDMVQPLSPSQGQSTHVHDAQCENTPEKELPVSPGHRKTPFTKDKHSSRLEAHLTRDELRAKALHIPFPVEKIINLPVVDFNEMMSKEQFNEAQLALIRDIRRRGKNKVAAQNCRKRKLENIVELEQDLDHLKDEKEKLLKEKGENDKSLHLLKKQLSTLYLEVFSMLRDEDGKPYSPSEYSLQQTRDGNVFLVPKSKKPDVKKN
Kind of series: Inhibition of human Nrf2 in HEK-293T cells expressing ARE-firefly luciferase and TK-Renilla luciferase at 0 to 100 uM incubated for 16 hrs by Dual-Luciferase reporter based luminometer analysis. In kind it is cell-based. As to conditions: dose 0-100 µM. On the technique in general: A reporter such as luciferase makes a cellular process visible.

Series [2] in a line: Stability of compound assessed as proteinase K (unknown origin) mediated compound degradation at 55 uM measured upto 24 hrs by LC/MS analysis. In kind it is ADME. Particulars: human.
Series [3] concerns the target T1, Nuclear factor erythroid 2-related factor 2 (Homo sapiens). The series is described as follows: Inhibition of human Nrf2 in HEK-293T cells expressing NQO1-ARE-firefly luciferase and TK-Renilla luciferase at 50 uM incubated for 16 hrs by Dual-Luciferase reporter based luminometer analysis. It counts as cell-based.
The nature of series [4]: Stability of compound assessed as proteinase K (unknown origin) mediated compound degradation at 55 uM measured after 40 mins by LC/MS analysis. In kind it is ADME. Particulars: human.
For series [5], the target named is T2, Transcription factor MafG (Homo sapiens, UniProt O15525). The series is described as follows: Binding affinity to human His-tagged MafG expressed in Escherichia coli Rosetta (DE3) by immunoprecipitation assay.
T2 sequence (O15525 whole entry): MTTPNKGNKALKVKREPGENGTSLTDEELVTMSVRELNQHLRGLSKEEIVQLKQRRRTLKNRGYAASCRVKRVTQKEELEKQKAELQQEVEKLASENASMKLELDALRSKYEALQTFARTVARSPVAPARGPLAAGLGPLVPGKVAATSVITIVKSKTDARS
For series [6], the target named is T2, Transcription factor MafG. The series is described as follows: Binding affinity to human His-tagged MafG at 1 uM incubated for 10 mins with 188 to 3000 nM protein by SPR analysis.
The target in series [7] is T2, Transcription factor MafG. Kind of series: Binding affinity to human His-tagged MafG expressed in Escherichia coli Rosetta (DE3) incubated in presence of unlabeled peptide by immunoprecipitation assay.
Series [8] concerns the target T2, Transcription factor MafG. The series is described as follows: Binding affinity to human His-tagged MafG assessed as dissociation constant incubated for 10 mins by SPR analysis.
For another series, the target named is Albumin (Bos taurus, UniProt P02769). Kind of series: Binding affinity to bovine serum albumin at 1 uM by SPR analysis. As to conditions: cattle.
Sequence of Albumin (P02769 whole entry): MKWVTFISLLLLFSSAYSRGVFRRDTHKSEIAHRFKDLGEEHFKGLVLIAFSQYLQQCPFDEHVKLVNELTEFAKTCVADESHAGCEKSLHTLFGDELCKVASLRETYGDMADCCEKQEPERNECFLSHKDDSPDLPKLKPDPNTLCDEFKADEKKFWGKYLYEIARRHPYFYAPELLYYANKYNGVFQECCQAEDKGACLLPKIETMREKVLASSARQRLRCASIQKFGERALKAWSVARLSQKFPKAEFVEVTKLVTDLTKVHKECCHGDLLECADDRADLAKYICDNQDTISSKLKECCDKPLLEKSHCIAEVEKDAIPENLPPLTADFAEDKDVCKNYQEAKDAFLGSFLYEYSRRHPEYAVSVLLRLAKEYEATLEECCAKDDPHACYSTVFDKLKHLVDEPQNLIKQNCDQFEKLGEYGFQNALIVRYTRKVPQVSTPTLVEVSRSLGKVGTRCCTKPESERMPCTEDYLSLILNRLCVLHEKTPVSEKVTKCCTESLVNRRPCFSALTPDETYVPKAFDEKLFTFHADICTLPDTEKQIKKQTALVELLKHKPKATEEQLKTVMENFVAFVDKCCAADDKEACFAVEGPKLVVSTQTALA

This is an account of results in ChEMBL document CHEMBL5338753, “Stapled Peptides as Direct Inhibitors of Nrf2-sMAF Transcription Factors” (J Med Chem, 2023).

The source made the active and inactive calls. No cut-off for these calls is given here. Positions of bridges follow the written chain, without caps; N, C: chain ends. Non-standard residues stand in square brackets, D forms with d. Residues, ends and D or L forms follow the SMILES beside them. ξ: configuration not given here. *: point of attachment. Biotin = O=C1N[C@H]2[C@H](CS[C@H]2CCCCC(=O)*)N1; R5 = C=CCCC[C@@](C)(N)C(=O)O; ξIle = CC[C@H](C)C(N)C(=O)O; Ahx = NCCCCCC(=O)O

`CC(=O)N[C@@H](C)C(=O)N[C@H](C(=O)N[C@@H](CCC(=O)O)C(=O)N[C@@H](C)C(=O)N[C@@H](CCC(=O)O)C(=O)N[C@]1(C)CCC/C=C\CCC[C@](C)(C(=O)N[C@@H](C)C(=O)N[C@@H](CCCCN)C(=O)N[C@@H](CC(=O)O)C(=O)N[C@@H](CCC(=O)O)C(=O)N[C@@H](C)C(=O)N[C@@H](CCC(=O)O)C(N)=O)NC(=O)[C@H](CC(=O)O)NC(=O)[C@H](C)NC(=O)[C@H](CC(=O)O)NC1=O)C(C)C` (Ac-AVEAE[R5]DAD[R5]AKDEAE-NH2; staple (Z) 6-10): the inhibition entry in series [1] was “inactive”.
As to `CC(=O)N[C@@H](CC(=O)O)C(=O)N[C@@H](CCC(=O)O)C(=O)N[C@@H](CCCCN)C(=O)N[C@@H](CCC(=O)O)C(=O)N[C@@H](CCCCN)C(=O)N[C@@H](CC(C)C)C(=O)N[C@]1(C)CCC/C=C\CCC[C@](C)(C(=O)N[C@@H](CCC(=O)O)C(=O)N[C@@H](CC(N)=O)C(=O)N[C@@H](CC(=O)O)C(=O)N[C@@H](CCCCN)C(=O)N[C@@H](CO)C(N)=O)NC(=O)[C@H](CCCCN)NC(=O)[C@H](CCC(=O)O)NC(=O)[C@H](CCCCN)NC1=O` (Ac-DEKEKL[R5]KEK[R5]ENDKS-NH2; staple (Z) 7-11), the Stability entry in [2] is listed as “Stable”. In addition, the inhibition entry in [3] was “inactive”.
For the compound `CC(=O)N[C@@H](CC(=O)O)C(=O)N[C@@H](CC(C)C)C(=O)N[C@@H](CC(=O)O)C(=O)N[C@@H](Cc1c[nH]cn1)C(=O)N[C@@H](CC(C)C)C(=O)N[C@]1(C)CCC/C=C\CCC[C@](C)(C(=O)N[C@@H](CCCCN)C(=O)N[C@@H](CC(C)C)C(=O)N[C@@H](CC(C)C)C(=O)N[C@@H](CCCCN)C(=O)N[C@@H](CCC(=O)O)C(=O)N[C@@H](CCCCN)C(N)=O)NC(=O)[C@H](CCCCN)NC(=O)[C@H](CCC(=O)O)NC(=O)[C@H](CC(=O)O)NC1=O` (Ac-DLDHL[R5]DEK[R5]KLLKEK-NH2; staple (Z) 6-10), the Stability result in [4] is on record as “Unstable”. In addition, in series [3], the inhibition result is “inactive”.
As for `CC(C)C[C@H](NC(=O)[C@H](CCCCN)NC(=O)[C@H](CCC(=O)O)NC(=O)[C@H](CCCCN)NC(=O)[C@H](CCC(=O)O)NC(=O)[C@H](CC(=O)O)NC(=O)CCCCCNC(=O)CCCC[C@@H]1SC[C@@H]2NC(=O)N[C@@H]21)C(=O)N[C@]1(C)CCC/C=C\CCC[C@](C)(C(=O)N[C@@H](CCC(=O)O)C(=O)N[C@@H](CC(N)=O)C(=O)N[C@@H](CC(=O)O)C(=O)N[C@@H](CCCCN)C(=O)N[C@@H](CO)C(N)=O)NC(=O)[C@H](CCCCN)NC(=O)[C@H](CCC(=O)O)NC(=O)[C@H](CCCCN)NC1=O` ({Biotin-Ahx}-DEKEKL[R5]KEK[R5]ENDKS-NH2; staple (Z) 7-11), the outcome in series [5] and in series [6] was inactive.
Take `CC(C)C[C@H](NC(=O)[C@H](CC(=O)O)NC(=O)CCCCCNC(=O)CCCC[C@@H]1SC[C@@H]2NC(=O)N[C@@H]21)C(=O)N[C@@H](CC(=O)O)C(=O)N[C@@H](Cc1c[nH]cn1)C(=O)N[C@@H](CC(C)C)C(=O)N[C@]1(C)CCC/C=C\CCC[C@](C)(C(=O)N[C@@H](CCCCN)C(=O)N[C@@H](CC(C)C)C(=O)N[C@@H](CC(C)C)C(=O)N[C@@H](CCCCN)C(=O)N[C@@H](CCC(=O)O)C(=O)N[C@@H](CCCCN)C(N)=O)NC(=O)[C@H](CCCCN)NC(=O)[C@H](CCC(=O)O)NC(=O)[C@H](CC(=O)O)NC1=O` ({Biotin-Ahx}-DLDHL[R5]DEK[R5]KLLKEK-NH2; staple (Z) 6-10): the outcome in [5] was inactive.
With `CC[C@H](C)C(NC(=O)CCCCCNC(=O)CCCC[C@@H]1SC[C@@H]2NC(=O)N[C@@H]21)C(=O)N[C@H](C(=O)N[C@@H](CCC(=O)O)C(=O)N[C@@H](CC(C)C)C(=O)N[C@@H](CCC(=O)O)C(=O)N[C@]1(C)CCC/C=C\CCC[C@](C)(C(=O)N[C@@H](CC(C)C)C(=O)N[C@@H](CCCCN)C(=O)N[C@@H](CC(=O)O)C(=O)N[C@@H](CCC(=O)O)C(=O)N[C@@H](CCCCN)C(=O)N[C@@H](CCC(=O)O)C(N)=O)NC(=O)[C@H](CC(=O)O)NC(=O)[C@H](CC(C)C)NC(=O)[C@H](CC(=O)O)NC1=O)C(C)C` (stereo partly specified) ({Biotin-Ahx}-[ξIle]VELE[R5]DLD[R5]LKDEKE-NH2; staple (Z) 6-10), the outcome in [7] and in series [5] was Active. Besides, the equilibrium dissociation constant (Kd) in series [8] turned out to be 337 nM. For the same compound, the Activity result on Albumin is listed as “Not Active”.
On to Ac-DEKEKLLKEKGENDKS-NH2, for which, in series [3], the inhibition entry is “inactive”.
For Ac-DLDHLKDEKEKLLKEK-NH2, the inhibition entry in [3] was “inactive”.
As for Ac-IVELEQDLDHLKDEKE-NH2, the Stability entry in series [2] is listed as “Unstable”. Besides, the inhibition entry in [3] was “inactive”.

The term Kd denotes the free concentration of one partner at which half of the binding sites on the other are occupied at equilibrium, for simple one-to-one binding.
